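Cultured in 96-well plates, cells were exposed to test compound for 48 hours across five concentrations. GI50: concentration for 50% inhibition of growth.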 The source made the active and inactive calls. Rule as the data show it: active = GI50 up to about 1.1 µM and inactive = higher.

Experimental findings from ChEMBL document CHEMBL1201862, “PubChem BioAssay data set” (2004) are described below.

Some test systems named below: TK-10; NCI-H23; UACC-62; SF-268; HOP-92; NCI-H226; SK-OV-3; Malme-3M; OVCAR-5; SF-539; DMS-273; OVCAR-8; HL-60; HCT-15; HT-29; SK-MEL-5; RXF 393.
What all share (assay): inhibition of tumour cell growth, NCI panel, 48 h

On to `CNC(=O)OCc1c2ccncc2c(C)c2c1[nH]c1ccc(OC)cc12`, for which the GI50 in the assay with TK-10 was 0.953 µM (active); in the assay on NCI-H23, 0.115 µM (active); with UACC-62, 0.16 µM (active); with SF-268, 0.161 µM (active); in the assay on HOP-92, 0.187 µM (active); in the assay with NCI-H226, 0.179 µM (active). Also, the GI50 in the assay with SK-OV-3 is 0.212 µM (active); in the assay with Malme-3M, 0.353 µM (active); with OVCAR-5 it was 0.247 µM (active); with SF-539 it was 0.154 µM (active); with DMS-273, 0.379 µM (active); in the assay with OVCAR-8, 0.209 µM (active). In addition, the values for the GI50 in the assay on HL-60, in the assay with HCT-15 and with HT-29 were 0.204 µM (active), 0.495 µM and 0.33 µM (active), respectively.

With `C[Si](C)(C)OC1CC(=O)OC1n1cc(F)c(=O)[nH]c1=O` (centres undefined), the GI50 with TK-10 was > 100 µM (inactive); in the assay with NCI-H23, > 27.8 µM (inactive); in the assay with UACC-62, 10.8 µM (inactive); in the assay with SF-268, 50.7 µM (inactive); with NCI-H226, > 86.9 µM (inactive); in the assay with SK-OV-3, > 95.7 µM (inactive). The GI50 was > 100 µM (inactive) with SK-MEL-5; 19.2 µM (inactive) with Malme-3M; > 43.6 µM (inactive) with RXF 393; > 89.9 µM (inactive) in the assay on OVCAR-5; 2.58 µM (inactive) in the assay with SF-539; 12.9 µM (inactive) in the assay with DMS-273. The GI50 in the assay with OVCAR-8 was 31.8 µM (inactive); in the assay with HL-60, 9.71 µM (inactive); in the assay on HCT-15 it was 9.44 µM; in the assay with HT-29 it was 8.32 µM (inactive).

Take `Cc1nc2c(s/c(=N\N)n2-c2ccccc2)c(=O)n1C`: the GI50 in the assay with TK-10, in the assay on NCI-H23, in the assay on UACC-62, in the assay on SF-268, in the assay with HOP-92 and with NCI-H226 was > 100 µM (inactive) each time. In addition, the GI50 with SK-OV-3, in the assay on SK-MEL-5, with RXF 393, in the assay on OVCAR-5, in the assay on SF-539 and in the assay on DMS-273 was > 100 µM (inactive) in each case. The GI50 was > 100 µM (inactive) in the assay with OVCAR-8, > 100 µM (inactive) with HL-60, > 100 µM in the assay on HCT-15 and > 100 µM (inactive) in the assay on HT-29.

In the case of `O=C1C(=O)C(Br)(Br)C(Br)=C1Br`, the GI50 is 19.4 µM (inactive) with TK-10; > 10 µM (inactive) in the assay on NCI-H23; 18.5 µM (inactive) in the assay with UACC-62; > 10 µM (inactive) with SF-268; 14 µM (inactive) with HOP-92; > 100 µM (inactive) with SK-OV-3. The GI50 in the assay on SK-MEL-5 was 15.4 µM (inactive); in the assay with Malme-3M, 20 µM (inactive); with RXF 393, > 10 µM (inactive); in the assay on OVCAR-5, 13.6 µM (inactive); with SF-539, 19 µM (inactive); with DMS-273 it was 22.3 µM (inactive). Also, the GI50 in the assay on OVCAR-8 was 17.3 µM (inactive); in the assay with HL-60, 18.7 µM (inactive); with HCT-15 it was 19.8 µM; in the assay on HT-29 it was 19 µM (inactive).

With `COC1OC(COS(=O)(=O)c2ccc(C)cc2)C(O)C(OS(=O)(=O)c2ccc(C)cc2)C1OS(=O)(=O)c1ccc(C)cc1` (centres undefined), the GI50 in the assay on NCI-H23, with SF-268, in the assay on NCI-H226, in the assay with SK-OV-3, in the assay on SK-MEL-5 and in the assay with Malme-3M was > 100 µM (inactive) in each case. Also, the GI50 with RXF 393, with OVCAR-5, in the assay with SF-539, in the assay with DMS-273, in the assay with OVCAR-8 and in the assay with HL-60 was > 100 µM (inactive) throughout. The GI50 in the assay with HCT-15 is > 100 µM; with HT-29, > 100 µM (inactive).

For the compound `C=C1C(C)C2C(Cc3ccccc3)NC(=O)C23OC(=O)/C=C\CC(=O)CCC(C)C/C=C/C3C1O` (centres undefined), the GI50 in the assay on TK-10 is 0.0834 µM (active); in the assay on NCI-H23 it was 3.1 µM (inactive); in the assay with UACC-62 it was 2.45 µM (inactive); with SF-268, 1.66 µM (inactive); in the assay with HOP-92, 0.581 µM (active); with NCI-H226, 1.92 µM (inactive). For the same compound, the GI50 in the assay on SK-OV-3 is 6.05 µM (inactive); in the assay with SK-MEL-5, 3.71 µM (inactive); in the assay with Malme-3M it was 1.82 µM (inactive); in the assay with RXF 393 it was 0.43 µM (active); in the assay with OVCAR-5 it was 8.69 µM (inactive); in the assay on DMS-273 it was 2.34 µM (inactive). The values for the GI50 in the assay on OVCAR-8, with HCT-15 and in the assay with HT-29 were 2.54 µM (inactive), 1.28 µM and 1.54 µM (inactive), respectively.

With `CC1(C(=O)NCCN(CCNC(=O)C2(C)CC3(C)CC(C)(C2)C(=O)NC3=O)CCNC(=O)C2(C)CC3(C)CC(C)(C2)C(=O)NC3=O)CC2(C)CC(C)(C1)C(=O)NC2=O` (centres undefined), the GI50 in the assay on NCI-H23 is > 100 µM (inactive); in the assay with UACC-62 it was > 100 µM (inactive); in the assay with HOP-92 it was < 0.01 µM (active); with SK-OV-3 it was > 100 µM (inactive); in the assay on RXF 393, > 100 µM (inactive); in the assay on SF-539, > 100 µM (inactive). Also, the GI50 was > 100 µM (inactive) with DMS-273; > 100 µM (inactive) with OVCAR-8; > 100 µM (inactive) with HL-60; > 100 µM with HCT-15; > 100 µM (inactive) with HT-29.

As for `CCOC(=O)NC(=O)c1cn(CCOCCOC(=O)NCCCCCCNC(=O)OCCOCCn2cc(C(=O)NC(=O)OCC)c(=O)[nH]c2=O)c(=O)[nH]c1=O`, the GI50 in the assay on TK-10, in the assay with NCI-H23, in the assay on UACC-62, in the assay with SF-268, in the assay on HOP-92 and with SK-OV-3 was > 100 µM (inactive) each time. Also, the GI50 with SK-MEL-5, in the assay on Malme-3M, in the assay with RXF 393, with OVCAR-5, in the assay with SF-539 and in the assay on DMS-273 was > 100 µM (inactive) each time. The GI50 with OVCAR-8 was > 100 µM (inactive); in the assay with HL-60, > 100 µM (inactive); with HCT-15, > 100 µM; in the assay with HT-29 it was > 100 µM (inactive).

As to `N#CNc1nc(N)c(-c2ccc(Cl)cc2)c(C(=O)Nc2nccs2)n1`, the GI50 with TK-10, with NCI-H23, with UACC-62, with SF-268, in the assay with HOP-92 and in the assay with NCI-H226 was > 100 µM (inactive) throughout. In addition, the GI50 in the assay with SK-MEL-5, with Malme-3M, with RXF 393, in the assay with OVCAR-5, with SF-539 and in the assay on DMS-273 was > 100 µM (inactive) throughout. Besides, the GI50 with OVCAR-8 was > 100 µM (inactive); in the assay on HL-60, > 100 µM (inactive); in the assay on HCT-15, > 100 µM; in the assay with HT-29 it was > 100 µM (inactive).

`NS(=O)(=O)c1ccc(NC(=O)c2cccc3c(Nc4ccc(S(N)(=O)=O)cc4)c4ccccc4nc23)cc1`: the GI50 with TK-10 is > 100 µM (inactive); with NCI-H23, 87.5 µM (inactive); in the assay with UACC-62 it was 31.8 µM (inactive); in the assay on SF-268, 15.5 µM (inactive); with HOP-92, 33.8 µM (inactive); in the assay on SK-OV-3, > 100 µM (inactive). Further, the GI50 was 41.2 µM (inactive) with SK-MEL-5; 43.9 µM (inactive) in the assay on Malme-3M; 52.5 µM (inactive) with RXF 393; > 100 µM (inactive) in the assay on OVCAR-5; 20.8 µM (inactive) with SF-539; 1.85 µM (inactive) in the assay with DMS-273. Also, the GI50 with OVCAR-8 is 48.5 µM (inactive); in the assay on HL-60 it was 28.6 µM (inactive); in the assay with HCT-15, 37.3 µM; in the assay with HT-29, 14.6 µM (inactive).

As for `Nc1nc(N)c(-c2ccc(Cl)cc2)c(CCC(=O)Nc2cccc(C(F)(F)F)c2)n1`, the GI50 in the assay on TK-10, in the assay with NCI-H23, in the assay with UACC-62, in the assay with SF-268, in the assay with NCI-H226 and in the assay on SK-OV-3 was > 100 µM (inactive) throughout. In addition, the GI50 in the assay on SK-MEL-5, with Malme-3M, in the assay on RXF 393, in the assay on OVCAR-5, in the assay with SF-539 and with DMS-273 was > 100 µM (inactive) throughout. In addition, the GI50 in the assay with OVCAR-8 is > 100 µM (inactive); in the assay with HL-60 it was > 100 µM (inactive); with HCT-15 it was > 100 µM; in the assay on HT-29 it was > 100 µM (inactive).

Take `CCO/C([O-])=C(\C(=O)c1ccccc1)[n+]1c(C)n(C)c2ccccc21`: the GI50 in the assay with TK-10, in the assay on NCI-H23, with UACC-62, in the assay with SF-268, in the assay on NCI-H226 and in the assay with SK-OV-3 was > 100 µM (inactive) each time. Moreover, the GI50 in the assay with SK-MEL-5, with Malme-3M, with RXF 393, in the assay with OVCAR-5, with SF-539 and in the assay on DMS-273 was > 100 µM (inactive) in each case. Also, the GI50 in the assay with OVCAR-8 is > 100 µM (inactive); in the assay with HL-60, > 100 µM (inactive); with HCT-15 it was > 100 µM; in the assay with HT-29, > 100 µM (inactive).

Take `CCCCNC(=O)CCN(C(=O)O)S(=O)(=O)c1ccc(NC(=O)c2ccccc2)cc1`: the GI50 with TK-10, with NCI-H23, in the assay on UACC-62, in the assay on SF-268, in the assay on HOP-92 and with NCI-H226 was > 100 µM (inactive) throughout. The GI50 is > 100 µM (inactive) with SK-OV-3; > 100 µM (inactive) in the assay on SK-MEL-5; > 100 µM (inactive) with Malme-3M; > 100 µM (inactive) in the assay with OVCAR-5; > 100 µM (inactive) with SF-539; 30.4 µM (inactive) in the assay with DMS-273. Further, the GI50 was > 100 µM (inactive) with OVCAR-8, > 100 µM (inactive) with HL-60, > 100 µM in the assay with HCT-15 and 22 µM (inactive) in the assay with HT-29.
